Reference: PMC5572697, “A first-in-human study of the novel HIV-fusion inhibitor C34-PEG4-Chol” (Scientific Reports, 2017)
Where two headings read alike, the source gives them in different places.

Key:
in vivo [1] = settings: mouse, C57BL/6 mice; for AUC(0-inf): plasma LC-MS, mean of three animals per point
Method: (§1) C34-PEG4-Chol first in man – Supplementary Information
(§2) Supplementary Information 2:
(§3) Preclinical Pharmacokinetics of C34-PEG4-Chol […]
(§4) C34-PEG4-Chol was formulated in 10 mM phosphate buffered saline (pH 7.2). The concentration of C34-PEG4-Chol in plasma samples was determined by LC-MS as previously […]
The PK of C34-PEG4-Chol in C57BL/6 mice following intravenous (IV) and subcutaneous (SC) dosing is shown in […]
(§5) Figure S2: Pharmacokinetics of C34-PEG4-Chol in mice. 3.5 mg/kg or 1.0 mg/kg (SC and IV, respectively) of C34-PEG4-Chol in 10mM phosphate buffered saline (PBS) were administered to C57BL/6 mice: volume of administration 5 mL/kg and 2 mL/kg for SC and IV administration, respectively. The concentration of the dosing solution was determined immediately after dosing with the same analytical method utilized to monitor peptide plasma concentration with time, and the analytical curves were adjusted accordingly (SC dose 0.56 mg/mL, theor.
0.5 mg/mL; IV dose 0.62 mg/mL, theor. 0.7 mg/mL). Each data point is the mean of three animals.
(§6) (1 picture or pasted object on this page, not shown here) […]

in vivo [2] = settings: rat, Wistar Han rats; for AUC(0-inf): plasma LC-MS, mean of three animals per point
Method: as §1, §2, §3, §4, §6
as §5, with “S3.” for “S2:”, “rats” for “mice.”, “Wistar Han rats:” for “C57BL/6 mice:”, “0.5 mL/kg.” for “5 mL/kg and 2 mL/kg for SC and IV administration, respectively.”, “accordingly. Each data point is the mean of three animals.” for “accordingly (SC dose 0.56 mg/mL, theor.”
Table S3. Calculated pharmacokinetics parameters of C34-PEG4-Chol in rats, following intravenous (IV) and subcutaneous (SC) administration.

in vivo [3] = settings: rhesus monkey, rhesus monkeys; for AUC(0-inf): plasma LC-MS, mean of three animals per point
Method: as §1, §2, §3, §4
Figure S4. Pharmacokinetics of C34-PEG4-Chol in rhesus monkeys 2.0 mg/kg or 1.0 mg/kg (SC and IV administration, respectively) of C34-PEG4-Chol in 10mM phosphate buffered saline (PBS) were administered to rhesus monkeys: volume of administration 0.5 mL/kg. The concentration of the dosing solution was determined immediately after dosing with the same analytical method utilized to monitor peptide plasma concentration with time, and the analytical curves were adjusted accordingly. Each data point is the mean of three animals.
Table S4. Calculated pharmacokinetics parameters of C34-PEG4-Chol in rhesus monkeys, following intravenous (IV) and subcutaneous (SC) administration. […]

[4] = IV 1.0 mg/kg, read-out: t½ (converted)

Work on `CC[C@H](C)[C@H](NC(=O)[C@H](CC(C)C)NC(=O)[C@H](CO)NC(=O)[C@H](Cc1c[nH]cn1)NC(=O)[C@@H](NC(=O)[C@H](CC(C)C)NC(=O)[C@H](CO)NC(=O)[C@@H](NC(=O)[C@H](Cc1ccc(O)cc1)NC(=O)[C@H](CC(N)=O)NC(=O)[C@H](CC(N)=O)NC(=O)[C@@H](NC(=O)[C@H](CCC(=O)O)NC(=O)[C@H](CCCNC(=N)N)NC(=O)[C@H](CC(=O)O)NC(=O)[C@H](Cc1c[nH]c2ccccc12)NC(=O)[C@H](CCC(=O)O)NC(=O)[C@H](CCSC)NC(=O)[C@H](Cc1c[nH]c2ccccc12)NC(C)=O)[C@@H](C)CC)[C@@H](C)O)[C@@H](C)CC)C(=O)N[C@@H](CCC(=O)O)C(=O)N[C@@H](CCC(=O)O)C(=O)N[C@@H](CO)C(=O)N[C@@H](CCC(N)=O)C(=O)N[C@@H](CC(N)=O)C(=O)N[C@@H](CCC(N)=O)C(=O)N[C@@H](CCC(N)=O)C(=O)N[C@@H](CCC(=O)O)C(=O)N[C@@H](CCCCN)C(=O)N[C@@H](CC(N)=O)C(=O)N[C@@H](CCC(=O)O)C(=O)N[C@@H](CCC(N)=O)C(=O)N[C@@H](CCC(=O)O)C(=O)N[C@@H](CC(C)C)C(=O)N[C@@H](CC(C)C)C(=O)NCC(=O)N[C@@H](CO)C(=O)NCC(=O)N[C@@H](CSCC(=O)NCCOCCOCCOCCOCCC(=O)O[C@H]1CC[C@@]2(C)C(=CC[C@H]3[C@@H]4CC[C@H]([C@H](C)CCCC(C)C)[C@@]4(C)CC[C@@H]32)C1)C(N)=O` [C34-PEG4-Chol] yielded a clearance (in vivo [1]; IV 1.0 mg/kg) of 0.29 mL/min/kg, an AUC(0-inf) (in vivo [1]; IV 1.0 mg/kg in 10 mM PBS) of 10.8 µM·h and a Vd (in vivo [1]; IV 1.0 mg/kg, read-out: Vdss) of 0.05 L/kg. For the same molecule, the half-life (in vivo [1]; [4]) was 1.97 h, the Cmax (in vivo [1]; SC 3.5 mg/kg) was 1120 nM and the Tmax (in vivo [1]; SC 3.5 mg/kg) was 5.3 h. It also gave a bioavailability (in vivo [1]; SC 3.5 mg/kg) of 30.3%, an AUC(0-inf) (in vivo [1]; SC 3.5 mg/kg in 10 mM PBS) of 11.5 µM·h and a clearance (in vivo [2]; IV 1.0 mg/kg) of 0.48 mL/min/kg. The AUC(0-inf) (in vivo [2]; IV 1.0 mg/kg in 10 mM PBS) was 6.6 µM·h, the Vd (in vivo [2]; IV 1.0 mg/kg, read-out: Vdss) was 0.08 L/kg and the half-life (in vivo [2]; [4]) was 2.18 h. For the same molecule, the Cmax (in vivo [2]; SC 3.5 mg/kg) was 260 nM, the Tmax (in vivo [2]; SC 3.5 mg/kg) was 3.3 h and the bioavailability (in vivo [2]; SC 3.5 mg/kg) was 7.97%. For the same molecule, the AUC(0-inf) (in vivo [2]; SC 3.5 mg/kg in 10 mM PBS) was 1.86 µM·h, the clearance (in vivo [3]; IV 1.0 mg/kg) was 0.078 mL/min/kg and the AUC(0-inf) (in vivo [3]; IV 1.0 mg/kg in 10 mM PBS) was 41.5 µM·h. The Vd (in vivo [3]; IV 1.0 mg/kg, read-out: Vdss) was 0.055 L/kg, the half-life (in vivo [3]; [4]) was 8.5 h and the Cmax (in vivo [3]; SC 2.0 mg/kg) was 1150 nM. It also gave a Tmax (in vivo [3]; SC 2.0 mg/kg) of 6.7 h, a bioavailability (in vivo [3]; SC 2.0 mg/kg) of 45.3% and an AUC(0-inf) (in vivo [3]; SC 2.0 mg/kg in 10 mM PBS) of 37.5 µM·h.
